This passage reports MIC results from ChEMBL document CHEMBL1156551, “Chlorohydroaspyrones A and B, antibacterial aspyrone derivatives from the marine-derived fungus Exophiala sp” (2008).

SMILES strings stand for the structures. Converted amounts (≈) assume the structure as drawn.

Type in all cases: functional
Assay [1] has as its system Staphylococcus aureus. Put plainly: Antibacterial activity against methicillin-resistant Staphylococcus aureus after 18 hrs by conventional 2 fold serial dilution method.
Assay [2] concerns Staphylococcus aureus. The experiment in a line: Antibacterial activity against multidrug-resistant Staphylococcus aureus after 18 hrs by conventional 2 fold serial dilution method.
Assay [3] concerns Staphylococcus aureus. Put plainly: Antibacterial activity against Staphylococcus aureus after 18 hrs by conventional 2 fold serial dilution method.

In general, MIC refers to the least concentration at which growth counts as inhibited. A higher MIC goes with a need for much substance.

Consider `C[C@H](Cl)[C@@H](O)C1=C[C@H](O)[C@@H](C)OC1=O` [CHLOROHYDROASPYRONE B], for which the MIC came out at 62.5 µg/mL (≈ 283 µM) in assay [1], 125 µg/mL (≈ 567 µM) in assay [2] and 62.5 µg/mL (≈ 283 µM) in assay [3].
On to `C[C@H](O)[C@H](Cl)C1=C[C@H](O)[C@@H](C)OC1=O` [CHLOROHYDROASPYRONE A], for which the MIC in assay [1] was 125 µg/mL (≈ 567 µM); in assay [2] it was 125 µg/mL (≈ 567 µM); in assay [3], 62.5 µg/mL (≈ 283 µM).
